Measured values taken from US11739074B2, “Ras inhibitors” (Revolution Medicines, Inc., priority 2019, dated 2023).

Tests used:
[1] = from CCn1c(-c2cccnc2[C@H](C)OC)c(CC(C)(C)CO)c2cc(-c3csc(C[C@H](NC(=O)OC(C)(C)C)C(=O)N4CCC[C@@H](C(=O)O)N4)n3)ccc21; ester bond; EDCI/HOBt/DIPEA; DCM; 12.65 mM; 25.0 °C; 16.0 h
AsPC-1 (K-Ras G12D) [2] = assay: Potency assay: pERK in AsPC-1 cells; format: cell-based; conditions: Homo sapiens, ASPC1; AsPC-1 cells, K-Ras G12D; read-out: pERK EC50 (AsPC-1 KRAS G12D)
NCI-H358 (K-Ras G12C) = assay: CellTiter-Glo cell viability assay, H358; format: cell-based; conditions: Homo sapiens, NCI-H358, 120 h, NCI-H358, K-Ras G12C, 5-day treatment; read-out: H358 Cell Viability IC50
Summary of the method: (§1)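 Viability is scored by CellTiter-Glo luminescence on day 5 of compound treatment, relative to vehicle (DMSO) wells set as 100%, with a four-parameter logistic fit.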

AsPC-1 (K-Ras G12D) [3] = assay: CellTiter-Glo cell viability assay, AsPC-1; format: cell-based; conditions: Homo sapiens, ASPC1, 120 h, AsPC-1, K-Ras G12D, 5-day treatment; read-out: AsPC-1 Cell Viability IC50
Summary of the method: as §1

KRAS G13D = KRAS G13D (Homo sapiens, UniProt P01116+P62937, G13D); assay: Ras-Raf disruption/FRET/MOA assay, KRAS G13D; format: biochemical; conditions: disruption of BRAF RBD binding, with Cyclophilin A; read-out: KRAS G13D FRET IC50
Summary of the method: (§2)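 His6-KRAS-GMPPNP (12.5 nM) was combined with tagless Cyclophilin A (25 μM) and GST-BRAF^RBD (50 nM) in pH 7.3 HEPES buffer with NaCl, MgCl2, Tween20 and BSA. Compound was tested as a 10-point 3-fold series from 30 μM final, 3 h at 25° C. Disruption was read as a drop in TR-FRET ratio versus DMSO.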

KRAS G12S = KRAS G12S (Homo sapiens, UniProt P01116+P62937, G12S); assay: Ras-Raf disruption/FRET/MOA assay, KRAS G12S; format: biochemical; conditions: disruption of BRAF RBD binding, with Cyclophilin A; read-out: KRAS G12S FRET IC50
Summary of the method: as §2

KRAS G13C = KRAS G13C (Homo sapiens, UniProt P01116+P62937, G13C); assay: Ras-Raf disruption/FRET/MOA assay, KRAS G13C; format: biochemical; conditions: disruption of BRAF RBD binding, with Cyclophilin A; read-out: KRAS G13C FRET IC50
Summary of the method: as §2

KRAS G12V = KRAS G12V (Homo sapiens, UniProt P01116+P62937, G12V); assay: Ras-Raf disruption/FRET/MOA assay, KRAS G12V; format: biochemical; conditions: disruption of BRAF RBD binding, with Cyclophilin A; read-out: KRAS G12V FRET IC50
Summary of the method: as §2

KRAS G12D = KRAS G12D (Homo sapiens, UniProt P01116+P62937, G12D); assay: Ras-Raf disruption/FRET/MOA assay, KRAS G12D; format: biochemical; conditions: disruption of BRAF RBD binding, with Cyclophilin A; read-out: KRAS G12D FRET IC50
Summary of the method: as §2

KRAS WT = KRAS WT (Homo sapiens, UniProt P01116+P62937); assay: Ras-Raf disruption/FRET/MOA assay, KRAS WT; format: biochemical; conditions: disruption of BRAF RBD binding, with Cyclophilin A; read-out: KRAS WT FRET IC50
Summary of the method: as §2

KRAS G12C = KRAS G12C (Homo sapiens, UniProt P01116+P62937, G12C); assay: Ras-Raf disruption/FRET/MOA assay, KRAS G12C; format: biochemical; conditions: disruption of BRAF RBD binding, with Cyclophilin A; read-out: KRAS G12C FRET IC50
Summary of the method: as §2

KRAS Q61H = KRAS Q61H (Homo sapiens, UniProt P01116+P62937, Q61H); assay: Ras-Raf disruption/FRET/MOA assay, KRAS Q61H; format: biochemical; conditions: KRAS Q61H; read-out: KRAS Q61H FRET data IC50
Summary of the method: as §2

NRAS G12C = biological target: T1, NRAS G12C (Homo sapiens, UniProt P01111+P62937, G12C); assay: Ras-Raf disruption/FRET/MOA assay, NRAS G12C; format: biochemical; conditions: NRAS G12C; read-out: NRAS G12C FRET data IC50
T1 construct: His6
Summary of the method: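 Disruption of Ras:RAF binding was read as a drop in TR-FRET ratio versus DMSO controls. The buffer was 25 mM HEPES pH 7.3, 0.002% Tween20, 0.1% BSA, 100 mM NaCl and 5 mM MgCl2. Compounds were tested as a 10-point 3-fold dilution series from 30 μM. Detection used 10 nM anti-His Eu-W1024 and 50 nM anti-GST allophycocyanin.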

NRAS WT = biological target: T2, NRAS WT (Homo sapiens, UniProt P01111+P62937); assay: Ras-Raf disruption/FRET/MOA assay, NRAS WT; format: biochemical; conditions: NRAS WT; read-out: NRAS WT FRET data IC50
T2 construct: His6

NRAS Q61K = biological target: T3, NRAS Q61K (Homo sapiens, UniProt P01111+P62937, Q61K); assay: Ras-Raf disruption/FRET/MOA assay, NRAS Q61K; format: biochemical; conditions: NRAS Q61K; read-out: NRAS Q61K FRET data IC50
T3 construct: His6
Source text: (§3) Disruption of B-Raf Ras-Binding Domain (BRAF^RBD) Interaction with K-Ras by Compounds of the Invention (Also Called a FRET Assay or an MOA Assay)
(§4) Note—The following protocol describes a procedure for monitoring disruption of K-Ras G12C (GMP-PNP) binding to BRAF^RBD by a compound of the invention. This protocol may also be executed substituting other Ras proteins or nucleotides, such as K-Ras G12D and K-Ras G13D.
(§5) The purpose of this biochemical assay was to measure the ability of test compounds to facilitate ternary complex formation between a nucleotide-loaded K-Ras isoform and Cyclophilin A; the resulting ternary complex disrupts binding to a BRAF^RBD construct, inhibiting K-Ras signaling through a RAF effector.
(§6) In assay buffer containing 25 mM HEPES pH 7.3, 0.002% Tween20, 0.1% BSA, 100 mM NaCl and 5 mM MgCl2, tagless Cyclophilin A, His6-K-Ras-GMPPNP, and GST-BRAF^RBD were combined in a 384-well assay plate at final concentrations of 25 μM, 12.5 nM, and 50 nM, respectively. Compound was present in plate wells as a 10-point 3-fold dilution series starting at a final concentration of 30 μM. After incubation at 25° C. for 3 hours, a mixture of anti-His Eu-W1024 and anti-GST allophycocyanin was then added to assay sample wells at final concentrations of 10 nM and 50 nM, respectively, and the reaction incubated for an additional 1.5 hours. […] Compounds that facilitate disruption of a K-Ras:RAF complex were identified as those eliciting a decrease in the TR-FRET ratio relative to DMSO control wells.

NRAS Q61R = biological target: T4, NRAS Q61R (Homo sapiens, UniProt P01111+P62937, Q61R); assay: Ras-Raf disruption/FRET/MOA assay, NRAS Q61R; format: biochemical; conditions: NRAS Q61R; read-out: NRAS Q61R FRET data IC50
T4 construct: His6
Source text: as §3, §4, §5, §6

Sequence of KRAS G12S (P01116 1-169 isoform P01116-2 G12S limits assumed): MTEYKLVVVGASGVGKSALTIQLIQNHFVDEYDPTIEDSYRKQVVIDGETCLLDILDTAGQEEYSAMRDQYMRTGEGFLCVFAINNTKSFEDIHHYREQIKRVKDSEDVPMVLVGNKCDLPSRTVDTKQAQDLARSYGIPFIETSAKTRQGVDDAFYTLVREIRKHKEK
Sequence of KRAS G12S (P62937 whole entry): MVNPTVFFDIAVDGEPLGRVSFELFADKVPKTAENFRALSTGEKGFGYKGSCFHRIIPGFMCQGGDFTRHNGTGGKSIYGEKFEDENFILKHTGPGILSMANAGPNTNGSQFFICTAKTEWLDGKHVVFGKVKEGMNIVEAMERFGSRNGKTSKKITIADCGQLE
Sequence of KRAS G12C (P01116 1-169 isoform P01116-2 G12C limits assumed): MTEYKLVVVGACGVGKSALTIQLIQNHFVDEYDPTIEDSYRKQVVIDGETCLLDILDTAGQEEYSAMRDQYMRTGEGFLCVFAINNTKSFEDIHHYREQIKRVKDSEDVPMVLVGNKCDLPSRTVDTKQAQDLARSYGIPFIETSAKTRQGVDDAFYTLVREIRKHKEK
Sequence of KRAS G12C (P62937 whole entry): as the sequence (P62937 whole entry) above
Sequence of KRAS G12D (P01116 1-169 isoform P01116-2 G12D limits assumed): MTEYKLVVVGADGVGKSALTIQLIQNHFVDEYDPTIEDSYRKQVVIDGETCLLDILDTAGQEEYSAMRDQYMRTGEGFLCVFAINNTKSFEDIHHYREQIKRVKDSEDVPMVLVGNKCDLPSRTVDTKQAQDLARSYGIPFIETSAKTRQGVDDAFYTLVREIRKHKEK
Sequence of KRAS G12D (P62937 whole entry): as the sequence (P62937 whole entry) above
Sequence of KRAS WT (P01116 1-169 isoform P01116-2 limits assumed): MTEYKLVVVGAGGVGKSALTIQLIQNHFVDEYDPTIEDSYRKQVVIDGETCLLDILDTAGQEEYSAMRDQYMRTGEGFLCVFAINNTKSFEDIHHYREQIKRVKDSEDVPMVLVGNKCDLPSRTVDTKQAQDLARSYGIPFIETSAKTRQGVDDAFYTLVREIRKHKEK
Sequence of KRAS WT (P62937 whole entry): as the sequence (P62937 whole entry) above
Sequence of KRAS Q61H (P01116 1-169 isoform P01116-2 Q61H limits assumed): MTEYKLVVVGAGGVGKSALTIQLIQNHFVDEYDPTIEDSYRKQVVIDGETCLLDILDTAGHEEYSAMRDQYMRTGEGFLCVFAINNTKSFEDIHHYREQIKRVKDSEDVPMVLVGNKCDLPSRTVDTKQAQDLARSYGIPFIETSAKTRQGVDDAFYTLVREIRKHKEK
Sequence of KRAS Q61H (P62937 whole entry): as the sequence (P62937 whole entry) above
T1 sequence (P01111 whole entry G12C): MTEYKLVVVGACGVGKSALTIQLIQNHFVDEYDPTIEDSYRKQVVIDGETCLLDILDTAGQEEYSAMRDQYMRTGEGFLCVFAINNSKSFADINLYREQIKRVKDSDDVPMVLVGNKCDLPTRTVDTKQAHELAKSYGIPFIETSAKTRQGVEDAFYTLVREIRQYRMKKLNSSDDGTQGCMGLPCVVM
T1 sequence (P62937 whole entry): as the sequence (P62937 whole entry) above
T3 sequence (P01111 whole entry Q61K): as the sequence (P01111 whole entry G12C) above, with C12G, Q61K counted along it
T3 sequence (P62937 whole entry): as the sequence (P62937 whole entry) above
T2 sequence (P01111 whole entry): as the sequence (P01111 whole entry G12C) above, with C12G counted along it
T2 sequence (P62937 whole entry): as the sequence (P62937 whole entry) above
Sequence of KRAS G13C (P01116 1-169 isoform P01116-2 G13C limits assumed): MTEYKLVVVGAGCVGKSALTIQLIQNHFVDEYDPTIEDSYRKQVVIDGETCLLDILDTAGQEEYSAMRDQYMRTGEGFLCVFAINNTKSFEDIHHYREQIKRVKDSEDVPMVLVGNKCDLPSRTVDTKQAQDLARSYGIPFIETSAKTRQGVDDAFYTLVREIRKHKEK
Sequence of KRAS G13C (P62937 whole entry): as the sequence (P62937 whole entry) above
Sequence of KRAS G13D (P01116 1-169 isoform P01116-2 G13D limits assumed): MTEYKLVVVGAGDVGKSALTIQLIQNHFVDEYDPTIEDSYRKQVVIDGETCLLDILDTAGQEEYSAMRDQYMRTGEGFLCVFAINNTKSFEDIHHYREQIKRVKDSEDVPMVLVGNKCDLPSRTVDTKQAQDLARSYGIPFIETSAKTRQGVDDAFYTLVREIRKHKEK
Sequence of KRAS G13D (P62937 whole entry): as the sequence (P62937 whole entry) above
T4 sequence (P01111 whole entry Q61R): as the sequence (P01111 whole entry G12C) above, with C12G, Q61R counted along it
T4 sequence (P62937 whole entry): as the sequence (P62937 whole entry) above
Sequence of KRAS G12V (P01116 1-169 isoform P01116-2 G12V limits assumed): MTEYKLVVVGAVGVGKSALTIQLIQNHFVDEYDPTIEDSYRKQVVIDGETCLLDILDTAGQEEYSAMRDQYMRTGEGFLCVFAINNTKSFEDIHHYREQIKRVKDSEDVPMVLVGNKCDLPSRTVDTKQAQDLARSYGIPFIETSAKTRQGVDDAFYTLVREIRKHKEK
Sequence of KRAS G12V (P62937 whole entry): as the sequence (P62937 whole entry) above

| Structure (SMILES) | ring closure, yield of all isomers [1] [%] | EC50 (AsPC-1 (K-Ras G12D) [2]) [µM] | IC50 (NCI-H358 (K-Ras G12C)) [µM] | IC50 (AsPC-1 (K-Ras G12D) [3]) [µM] | IC50 (KRAS G13D) [µM] | IC50 (KRAS G12S) [µM] | IC50 (KRAS G13C) [µM] | IC50 (KRAS G12V) [µM] | IC50 (KRAS G12D) [µM] | IC50 (KRAS WT) [µM] | IC50 (KRAS G12C) [µM] | IC50 (KRAS Q61H) [µM] | IC50 (NRAS G12C) [µM] | IC50 (NRAS WT) [µM] | IC50 (NRAS Q61K) [µM] | IC50 (NRAS Q61R) [µM] |
| --- | --- | --- | --- | --- | --- | --- | --- | --- | --- | --- | --- | --- | --- | --- | --- | --- |
| CCn1c(-c2cccnc2[C@H](C)OC)c2c3cc(ccc31)-c1csc(n1)C[C@H](NC(=O)OC(C)(C)C)C(=O)N1CCC[C@H](N1)C(=O)OCC(C)(C)C2 | 81.1 |  |  |  |  |  |  |  |  |  |  |  |  |  |  |  |
| CCn1c(-c2cccnc2[C@H](C)OC)c2c3cc(ccc31)-c1cc(O)cc(c1)C[C@H](NC(=O)[C@H](C(C)C)N1CCCC3(CN(C(=O)[C@H]4CN4)C3)C1=O)C(=O)N1CCC[C@H](N1)C(=O)OCC(C)(C)C2 [Compound 307] |  | < 5 | < 0.01 | 0.1 to 1 | 0.01 to 0.1 | 0.01 to 0.1 | 0.01 to 0.1 | 0.01 to 0.1 | 0.1 to 1 | 0.01 to 0.1 | < 0.01 | 0.01 to 0.1 | < 0.01 | 0.01 to 0.1 | 0.1 to 1 | 0.1 to 1 |
| CCn1c(-c2cccnc2[C@H](C)OC)c2c3cc(ccc31)-c1csc(n1)C[C@H](NC(=O)[C@H](C1CCCC1)N1CC[C@]3(CCN(C(=O)[C@H]4CN4)C3)C1=O)C(=O)N1CCC[C@H](N1)C(=O)OCC(C)(C)C2 [Compound 319] |  | < 5 | < 0.01 | 0.1 to 1 | 1 to 10 | 1 to 10 | 0.1 to 1 | 1 to 10 | 1 to 10 | 1 to 10 | 0.01 to 0.1 | 0.1 to 1 | 0.01 to 0.1 | 1 to 10 | 0.1 to 1 | 1 to 10 |
| CCn1c(-c2cccnc2[C@H](C)OC)c2c3cc(ccc31)-c1cc(CF)cc(c1)C[C@H](NC(=O)[C@H](C1CCCC1)N1CC[C@]3(CCN(C(=O)[C@@H]4N[C@@H]4C4CC4)C3)C1=O)C(=O)N1CCC[C@H](N1)C(=O)OCC(C)(C)C2 [Compound 321] |  | < 5 | 0.1 to 1 | 0.01 to 0.1 | 1 to 10 | 0.1 to 1 | 0.1 to 1 | 0.1 to 1 | 0.1 to 1 | 0.1 to 1 | 0.1 to 1 | 0.1 to 1 | 0.1 to 1 | 0.1 to 1 | 1 to 10 | 1 to 10 |
| CCn1c(-c2cc(N3CCN(C)CC3)cnc2[C@H](C)OC)c2c3cc(ccc31)-c1csc(n1)C[C@H](NC(=O)[C@H](C1CCCC1)N1CC[C@]3(CCN(C(=O)[C@@H]4N[C@@H]4C4CC4)C3)C1=O)C(=O)N1CCC[C@H](N1)C(=O)OCC(C)(C)C2 [Compound 324] |  | < 5 | < 0.01 | 0.01 to 0.1 | 1 to 10 | 0.1 to 1 | 0.1 to 1 | 0.1 to 1 | 0.1 to 1 | 0.1 to 1 | 0.1 to 1 | 0.1 to 1 | 0.1 to 1 | 0.1 to 1 | 0.1 to 1 | 0.1 to 1 |
